Earlier results, collected in patent publication US6635288B2, “Composition for suppressing cellular fibrousing and method for preparing an extract from loquat seeds” (Kochi Medical School, priority 2000, dated 2003).

Tested on: rats
Details: Carter et al., Biochem. Pharmacol. 29, 301 (1980)

N#C[C@H](O[C@@H]1O[C@H](CO[C@@H]2O[C@H](CO)[C@@H](O)[C@H](O)[C@H]2O)[C@@H](O)[C@H](O)[C@H]1O)c1ccccc1 [amygdalin]
lethal dose: 600 mg
